# Source: patent US9920295B2, “Bioreactor for isolation of rare cells and methods of use” (The Trustees of the University of Pennsylvania, priority 2012, dated 2018)
# Experiments:
# NMM-IIA = target: T1, NMM-IIA (Homo sapiens, UniProt P35579); assay: NMM-IIA phosphorylation in THP-1 cells (IP, MS, flow cytometry); type: cell-based
# T1 construct: endogenous in cells; host or cells: THP-1 cells
# Experimental: In general, cells were washed with ice-cold PBS and lysed on ice with lysis buffer (150 mM sodium chloride, 1% Nonidet P-40, 1% protease inhibitor mixture, 1 mM activated sodium orthovanadate, 50 mM Tris at pH 8.0) for 30 min. For immunoprecipitation (IP), 30 mM of pervanadate solution was prepared by mixing sodium orthovanadate with H2O2 for 15 min at room temperature. At least 1×10^7 THP-1 cells were treated with pervanadate with or without blebbistatin at 37° C. for 15 min. Cells were then washed, lysed, and whole-cleared lysate was mixed with anti-NMM-IIA antibody at 4° C. overnight, followed by incubation with Protein G (Invitrogen) for 1 h. For Western blot, whole lysate or IP proteins were separated on 4% to 12% SDS/PAGE gels (NuPAGE 4-12% Bis-Tris, Invitrogen). The proteins were then transferred to a polyvinylidene fluoride (PVDF) membrane with an iBlot Gel Transfer Device (Invitrogen), followed by blocking with 5% nonfat dry milk solution for 1 h. Incubation with primary antibodies was done at 4° C. overnight with 1:1,000β-actin, 1:250 pTyr, and 1:1,000 NMM-IIA antibodies. After washing, the membrane was incubated with 1:2,500 anti-rabbit and 1:1,000 anti-mouse HRP-conjugated IgG antibodies at room temperature for 1 h. […]
# [1] = system: human-CD41+ platelets in NSG mice; assay: In vivo human platelet generation after intratibial transplantation into NSG mice; set-up: species or system mouse
# Experimental: Eight- to 10-wk-old nonobese diabetic (NOD)/SCID/IL-2Rγ−/− (NSG) mice were obtained and maintained in-house at the Penn Xenograft Core Facility. Before transplantation (˜24 h), mice received a sublethal dose of 320 cGy total body irradiation. Cultured human CD34^+-derived cells (0.5−3×10^5 uncultured BM CD34^+ equivalent) with or without drug treatment was suspended in 20 μL PBS and injected directly into the tibia. Peripheral blood (PB) was then obtained from the transplanted mice via retroorbital bleeding and human platelet quantification was done at indicated times. To calculate human platelet in NSG circulation, the total platelet concentration count was done by Hemavet (Drew Scientific), and 2 μL of PB per staining sample was washed in the presence of PGE1 inhibitor (Sigma) and resuspended in PBS. Cells were incubated with mouse Fc-blocker (BD Biosciences) for 5 min, followed by addition of mouse anti-human CD41-FITC and rat anti-mouse CD41-PE antibodies (eBioscience). After 30 min incubation at room temperature, cells were fixed by addition of 0.5% paraformaldehyde and analyzed by flow cytometry within 2 h. Platelets were gated on based on forward and side scatters, and at least 50,000 events were acquired. Human platelet concentration was obtained by multiplying the total platelet count by the percentage of human CD41-FITC of the total CD41^+ platelets (mouse plus human). Microscopic determination and isotype control with mixing known number of human platelets indicate the threshold detection limit of 0.001%. The total human platelet number in each transplanted NSG mouse was estimated by assuming that the average total mouse blood is ˜1.5 mL (Riches et al., 1973, J Physiol, 228:279-284). All animal experiments were performed in accordance with institutional guidelines approved by the ethical committee from the University of Pennsylvania.
# CD41+ and CD41− cells = assay: Label-free MS quantitation of cytoskeletal proteome; type: cell-based, human
# Experimental: BM CD34^+-derived cells at day 7 were stained with CD41-FITC at room temperature for 1 h, followed by with Annexin-V-PE (BD Biosciences) in the Annexin-V staining medium for 15 min. Cells were then resuspended in 2% FBS/PBS with 7-AAD. Viable HSC-containing cell populations and differentiated MK lineages at day 7 in culture were separated on the basis of CD41 surface expression by cell sorting performed on a FACS Vantage machine (Becton Dickinson). Dead cells stained with 7-AAD and Annexin-V were excluded from sorting. Sorted cells were directly processed for mass spectrometry (MS) analyses (FIG. 5).
# Samples were prepared for mass spectrometry by gel-free (Wiśniewski et al., 2009, Nat Methods, 6:359-362) or in-gel digestion methods. […] Label-free relative peptide quantitation was performed on proportional peak fingerprints (ProPF) of proteins with in-house software coded in Mathematica (Wolfram Research). […] Proteomes from primary MKs were analyzed using this unique method and a selected group of proteins were validated by antibodies (FIG. 13D). COS cells transfected with GFP-NMM-IIA and siRNA […] knockdown were also analyzed by the method, and show increased NMM-IIA expression by 17-fold and partial knockdown (˜40%) of NMM-IIA compared with cells transfected with GFP and scrambled siRNA. There was minimal perturbation to other proteins detected.
# T1 sequence (P35579 2-1960 limits assumed): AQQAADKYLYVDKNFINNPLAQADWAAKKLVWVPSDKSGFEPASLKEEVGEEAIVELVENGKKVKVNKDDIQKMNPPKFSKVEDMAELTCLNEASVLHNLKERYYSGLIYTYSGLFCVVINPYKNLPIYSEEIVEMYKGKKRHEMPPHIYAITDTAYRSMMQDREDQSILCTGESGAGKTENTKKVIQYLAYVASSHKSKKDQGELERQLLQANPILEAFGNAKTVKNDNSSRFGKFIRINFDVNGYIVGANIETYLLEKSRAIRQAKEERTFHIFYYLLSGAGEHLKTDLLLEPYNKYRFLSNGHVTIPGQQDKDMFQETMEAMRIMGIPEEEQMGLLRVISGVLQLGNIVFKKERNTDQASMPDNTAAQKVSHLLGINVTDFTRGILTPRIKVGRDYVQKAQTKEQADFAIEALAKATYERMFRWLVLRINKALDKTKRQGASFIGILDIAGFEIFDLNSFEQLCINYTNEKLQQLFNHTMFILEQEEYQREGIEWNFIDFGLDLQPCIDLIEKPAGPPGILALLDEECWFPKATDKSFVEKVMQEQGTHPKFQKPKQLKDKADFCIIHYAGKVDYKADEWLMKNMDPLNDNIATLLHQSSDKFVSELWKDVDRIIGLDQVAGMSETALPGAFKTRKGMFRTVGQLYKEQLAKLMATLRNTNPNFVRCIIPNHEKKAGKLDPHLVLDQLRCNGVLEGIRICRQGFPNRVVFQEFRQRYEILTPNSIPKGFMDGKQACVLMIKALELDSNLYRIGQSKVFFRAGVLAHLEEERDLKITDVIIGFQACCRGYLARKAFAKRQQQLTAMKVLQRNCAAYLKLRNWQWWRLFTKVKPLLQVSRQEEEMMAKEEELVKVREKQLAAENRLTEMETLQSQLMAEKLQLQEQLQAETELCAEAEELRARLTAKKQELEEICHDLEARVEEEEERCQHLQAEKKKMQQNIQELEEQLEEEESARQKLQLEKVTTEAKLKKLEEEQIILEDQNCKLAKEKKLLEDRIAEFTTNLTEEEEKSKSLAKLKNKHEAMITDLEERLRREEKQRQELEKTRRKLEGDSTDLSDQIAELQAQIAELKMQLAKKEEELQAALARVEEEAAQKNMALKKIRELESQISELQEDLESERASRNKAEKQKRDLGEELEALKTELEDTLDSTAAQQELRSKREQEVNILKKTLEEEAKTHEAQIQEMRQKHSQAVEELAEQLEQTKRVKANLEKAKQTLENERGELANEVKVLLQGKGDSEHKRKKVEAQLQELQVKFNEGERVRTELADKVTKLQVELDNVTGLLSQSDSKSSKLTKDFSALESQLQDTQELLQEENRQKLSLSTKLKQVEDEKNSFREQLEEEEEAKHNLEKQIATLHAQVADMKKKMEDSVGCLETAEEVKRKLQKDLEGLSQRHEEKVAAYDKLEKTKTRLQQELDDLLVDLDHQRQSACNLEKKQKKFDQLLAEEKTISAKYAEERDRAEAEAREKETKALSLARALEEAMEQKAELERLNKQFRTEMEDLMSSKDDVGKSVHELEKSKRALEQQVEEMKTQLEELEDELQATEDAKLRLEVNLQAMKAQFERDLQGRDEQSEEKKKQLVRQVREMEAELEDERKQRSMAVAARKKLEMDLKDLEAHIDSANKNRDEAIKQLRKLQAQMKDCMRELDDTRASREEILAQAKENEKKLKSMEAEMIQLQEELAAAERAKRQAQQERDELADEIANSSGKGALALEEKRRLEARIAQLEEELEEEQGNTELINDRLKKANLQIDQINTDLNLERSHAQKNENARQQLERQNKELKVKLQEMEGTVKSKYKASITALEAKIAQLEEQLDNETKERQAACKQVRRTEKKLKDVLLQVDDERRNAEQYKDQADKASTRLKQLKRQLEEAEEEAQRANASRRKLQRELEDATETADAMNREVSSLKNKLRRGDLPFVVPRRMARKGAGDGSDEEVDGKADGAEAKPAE
# T1 sequence (P60660 2-151 partner limits assumed): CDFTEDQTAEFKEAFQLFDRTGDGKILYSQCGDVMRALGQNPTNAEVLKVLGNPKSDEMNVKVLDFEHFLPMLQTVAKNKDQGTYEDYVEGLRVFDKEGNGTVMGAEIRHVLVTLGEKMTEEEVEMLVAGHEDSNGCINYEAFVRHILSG
# T1 sequence (O14950 2-172 partner limits assumed): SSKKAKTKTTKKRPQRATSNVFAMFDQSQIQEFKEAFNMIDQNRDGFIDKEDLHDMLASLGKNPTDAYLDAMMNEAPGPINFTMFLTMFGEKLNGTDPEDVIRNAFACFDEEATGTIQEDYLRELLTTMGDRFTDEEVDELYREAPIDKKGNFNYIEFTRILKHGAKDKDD
structure (smiles),measurement,setting,value
"Cc1ccc2c(c1)C(=O)C1(O)CCN(c3ccccc3)C1=N2 (racemic) [blebbistatin, (±)-blebbistatin]",pTyr levels,"NMM-IIA; THP-1, basal and phosphatase-inhibited conditions",decreases pTyr levels
same,phospho-S1943 of NMM-IIA,"NMM-IIA; THP-1, detergent-soluble monomer",increases phospho-S1943
same,human plts per transplanted CD41+ cell vs untreated,[1]; Phase-I and Phase-II of circulation,about 4 fold
same,plt half-life,"[1]; Phase-II decay, regardless of drug treatment",~37 h
same,in vivo human platelets per transplanted CD41+ cell vs untreated,"[1]; cells treated ex vivo 3 d, day 3 posttransplant",about fourfold
same,detected proteins up-regulated,"CD41+ and CD41− cells; CD41+ cells, treated samples",75%
same,indicated proteins with increased expression,"CD41+ and CD41− cells; CD41− cells, 3 d treatment",20%
